Assay results reported in PMC11995724, “Antibiotic target discovery by integrated phenotypic and activity-based profiling of electrophilic fragments” (Cell chemical biology, 2025).

Test: in vitro
Details: human, hek293t cells

Structure (SMILES)	viability at 48 h, 25 µM [%]
CCCc1ccc(-c2csc(NC(=O)CCl)n2)cc1 [4-C09, 2-chloro-N-[4-(4-propylphenyl)-1,3-thiazol-2-yl]acetamide]	1.34
CC(Cl)C(=O)N1CCNC(=O)C1Cc1nc2ccccc2o1 (stereo not drawn) [6-P03, 3-[(1,3-benzoxazol-2-yl)methyl]-4-(2-chloropropanoyl)piperazin-2-one]	110
C=CC(=O)Nc1ccc2c(c1)SCC(=O)N2 [1-C22, N-(3-oxo-3,4-dihydro-2H-1,4-benzothiazin-7-yl)prop-2-enamide]	109
C=CC(=O)N1CCN(CC2CCOC2)CC1 (stereo not drawn) [1-H18, 1-{4-[(oxolan-3-yl)methyl]piperazin-1-yl}prop-2-en-1-one]	49.6
O=C(CCl)NCCc1c[nH]c2c(F)c(F)c(F)cc12 [7-H16, 2-chloro-N-[2-(5,6,7-trifluoro-1H-indol-3-yl)ethyl]acetamide]	1.21
O=C(CCl)Nc1ccc2ccccc2c1 [4-B12, 2-chloro-N-(naphthalen-2-yl)acetamide]	0.59
CCOC(=O)c1c2c(nn1C)CCN(C(=O)C(C)Cl)C2 (stereo not drawn) [7-I07, ethyl 5-(2-chloropropanoyl)-2-methyl-2H,4H,5H,6H,7H-pyrazolo[4,3-c]pyridine-3-carboxylate]	92.6
CC(NC(=O)C(C#N)=Cc1ccc(-c2ccccc2)cc1)c1ccccc1 (stereo not drawn) [8-J11, 3-{[1,1'-biphenyl]-4-yl}-2-cyano-N-(1-phenylethyl)prop-2-enamide]	26.5
Cc1c(Cl)cccc1NC(=O)C(C#N)=Cc1cccs1 [9-B05, N-(3-chloro-2-methylphenyl)-2-cyano-3-(thiophen-2-yl)prop-2-enamide]	108
O=C(CCl)Nc1ccccc1C(=O)c1ccccc1 [4-J06, N-(2-benzoylphenyl)-2-chloroacetamide]	1.12
O=C(CCl)Nc1ccc(-c2ccccc2)cc1 [4-N10, N-{[1,1'-biphenyl]-4-yl}-2-chloroacetamide]	0.814
COc1ccc(C=C(C#N)C(=O)NCc2ccco2)cc1 [8-J12, 2-cyano-N-[(furan-2-yl)methyl]-3-(4-methoxyphenyl)prop-2-enamide]	112
O=C(CCl)N1N=C(c2ccsc2)CC1c1cccc(F)c1 (stereo not drawn) [4-C22, 2-chloro-1-[5-(3-fluorophenyl)-3-(thiophen-3-yl)-4,5-dihydro-1H-pyrazol-1-yl]ethan-1-one]	0.063
O=C(CCl)NCC(=O)Nc1ccc(F)c(F)c1 [4-L16, 2-chloro-N-{[(3,4-difluorophenyl)carbamoyl]methyl}acetamide]	1.48
CC(Cl)C(=O)NC(c1cc(Cl)ccc1Cl)C1CCOC1 (stereo not drawn) [7-K21, 2-chloro-N-[(2,5-dichlorophenyl)(oxolan-3-yl)methyl]propanamide]	87.9
Cc1ccc(NC(=O)CCl)cc1S(=O)(=O)N1CCOCC1 [4-L07, 2-chloro-N-[4-methyl-3-(morpholine-4-sulfonyl)phenyl]acetamide]	0.278
C=CC(=O)NCCC(=O)N1CCN(c2ccccc2Cl)CC1 [3-J22, N-{3-[4-(2-chlorophenyl)piperazin-1-yl]-3-oxopropyl}prop-2-enamide]	88.6
CN(CCc1ccccc1O)C(=O)CCl [7-P21, 2-chloro-N-[2-(2-hydroxyphenyl)ethyl]-N-methylacetamide]	-0.172
C=CC(=O)N(Cc1c(F)cc(C)cc1Cl)C1CCCOCC1 (stereo not drawn) [2-A13, N-[(2-chloro-6-fluoro-4-methylphenyl)methyl]-N-(oxepan-4-yl)prop-2-enamide]	99
CC(=O)c1ccc(S(=O)(=O)N2CCN(C(=O)CCl)CC2)cc1 [5-P16, 1-[4-(4-acetylbenzenesulfonyl)piperazin-1-yl]-2-chloroethan-1-one]	1.74
CC(Cl)C(=O)N1CCN(c2cc(-c3ccccc3F)n[nH]2)CC1 (stereo not drawn) [6-N20, 2-chloro-1-{4-[3-(2-fluorophenyl)-1H-pyrazol-5-yl]piperazin-1-yl}propan-1-one]	86.2
CC(Cl)C(=O)N1Cc2cccn2[C@@H](C)C1 (stereo partly drawn) [7-N22, 2-chloro-1-[(4S)-4-methyl-1H,2H,3H,4H-pyrrolo[1,2-a]pyrazin-2-yl]propan-1-one]	86.7
O=C(CCl)NCCCc1ccccc1 [4-N04, 2-chloro-N-(3-phenylpropyl)acetamide]	50.6
N#CC(=Cc1ccc(-c2cccc([N+](=O)[O-])c2)o1)C(=O)N1CCOCC1 [8-C07, 2-(morpholine-4-carbonyl)-3-[5-(3-nitrophenyl)furan-2-yl]prop-2-enenitrile]	79.1
Cc1ccc(Oc2ccc(Cl)cc2NC(=O)CCl)cc1 [4-A21, 2-chloro-N-[5-chloro-2-(4-methylphenoxy)phenyl]acetamide]	98.6
C=CC(=O)NC1CCCN(Cc2ccccc2)C1 (stereo not drawn) [1-K12, N-(1-benzylpiperidin-3-yl)prop-2-enamide]	82.8
CSc1cccc(NC(=O)CCl)c1 [4-H10, 2-chloro-N-[3-(methylsulfanyl)phenyl]acetamide]	1.13

Structure (SMILES)	viability at 48 h, 25 µM [%]
N#CC(=Cc1cc(F)ccc1F)C(=O)Nc1cc(Cl)ccc1Cl [8-A12, 2-cyano-N-(2,5-dichlorophenyl)-3-(2,5-difluorophenyl)prop-2-enamide]	61
O=C(CCl)NCCOc1ccc(F)cc1 [6-A08, 2-chloro-N-[2-(4-fluorophenoxy)ethyl]acetamide]	1.34
Cc1cccc(Cl)c1CCCNC(=O)CCl [7-F04, 2-chloro-N-[3-(2-chloro-6-methylphenyl)propyl]acetamide]	0.614
N#CC(=Cc1ccc(OC(F)F)cc1)C(=O)Nc1ccccc1 [9-G15, 2-cyano-3-[4-(difluoromethoxy)phenyl]-N-phenylprop-2-enamide]	139
CSc1ccccc1NC(=O)CCl [4-E11, 2-chloro-N-[2-(methylsulfanyl)phenyl]acetamide]	0.595
C=CC(=O)N1CC(S(=O)(=O)N2CCOCC2)C1 [2-A16, 1-[3-(morpholine-4-sulfonyl)azetidin-1-yl]prop-2-en-1-one]	74
CNC(=O)C(F)(F)C1(O)CCN(C(=O)CCl)CC1 [5-F03, 2-[1-(2-chloroacetyl)-4-hydroxypiperidin-4-yl]-2,2-difluoro-N-methylacetamide]	1.94
C=CC(=O)NCc1ccnc(N2CCN(c3ccc(F)cc3)CC2)c1 [1-M11, N-({2-[4-(4-fluorophenyl)piperazin-1-yl]pyridin-4-yl}methyl)prop-2-enamide]	71.6
CC(Oc1cccc(F)c1F)C(=O)N1CCN(C(=O)CCl)CC1 (stereo not drawn) [5-H03, 1-[4-(2-chloroacetyl)piperazin-1-yl]-2-(2,3-difluorophenoxy)propan-1-one]	1.67
CCN(Cc1ccc(C(F)(F)F)cc1)C(=O)CCl [7-H20, 2-chloro-N-ethyl-N-{[4-(trifluoromethyl)phenyl]methyl}acetamide]	0.708
C=CC(=O)N1CCOCC1c1noc(C)n1 (stereo not drawn) [3-O11, 1-[3-(5-methyl-1,2,4-oxadiazol-3-yl)morpholin-4-yl]prop-2-en-1-one]	51.5
C=CC(=O)N(C)CC(=O)N1CCN(c2ccccc2[N+](=O)[O-])CC1 [2-L04, N-methyl-N-{2-[4-(2-nitrophenyl)piperazin-1-yl]-2-oxoethyl}prop-2-enamide]	83.6
COCCNC(=O)C(C#N)=Cc1sccc1C [9-M17, 2-cyano-N-(2-methoxyethyl)-3-(3-methylthiophen-2-yl)prop-2-enamide]	131
C=C(Cl)CN(C(=O)CCl)C1CCc2ccccc21 (stereo not drawn) [7-B18, 2-chloro-N-(2-chloroprop-2-en-1-yl)-N-(2,3-dihydro-1H-inden-1-yl)acetamide]	0.322
C=CC(=O)N1CCC(C(=O)NCc2ccc(-c3n[nH]c(C)n3)cc2)CC1 [3-M21, N-{[4-(5-methyl-1H-1,2,4-triazol-3-yl)phenyl]methyl}-1-(prop-2-enoyl)piperidine-4-carboxamide]	56.1
CC1CN(C(=O)C(C)Cl)CC(C)O1 (stereo not drawn) [5-F04, 2-chloro-1-(2,6-dimethylmorpholin-4-yl)propan-1-one]	96.1
C=CC(=O)N1CCC(Cc2nccs2)C1 (stereo not drawn) [3-O16, 1-{3-[(1,3-thiazol-2-yl)methyl]pyrrolidin-1-yl}prop-2-en-1-one]	98.7
C=CC(=O)NC[C@@H]1C=C[C@H]2C[C@@H]1CO2 (racemic) [1-I03, rac-N-{[(1R,2S,5S)-6-oxabicyclo[3.2.1]oct-3-en-2-yl]methyl}prop-2-enamide]	78.1
C=CC(=O)NCC(C)(C)C1CCCCC1 [1-E21, N-(2-cyclohexyl-2-methylpropyl)prop-2-enamide]	75.5
CC(Cl)C(=O)NC(=O)NCc1ccccc1 (stereo not drawn) [6-P06, 1-benzyl-3-(2-chloropropanoyl)urea]	123
C=CC(=O)NCC(C)(C)Cn1cccn1 [1-J04, N-[2,2-dimethyl-3-(1H-pyrazol-1-yl)propyl]prop-2-enamide]	69.4
NC(=O)CCc1ccc(C(=O)CCl)cc1 [10-I03, 3-[4-(2-chloroacetyl)phenyl]propanamide]	4.69
O=C(CCl)N1N=C(c2cccs2)CC1c1cccs1 (stereo not drawn) [4-O18, 1-[3,5-bis(thiophen-2-yl)-4,5-dihydro-1H-pyrazol-1-yl]-2-chloroethan-1-one]	0.013
CCCCNC(=O)C(C#N)=Cc1c(Cl)nc2ccccn12 [9-O09, N-butyl-3-{2-chloroimidazo[1,2-a]pyridin-3-yl}-2-cyanoprop-2-enamide]	129
CC(Cl)C(=O)NC(Cc1ccccc1)c1ncco1 (stereo not drawn) [7-E12, 2-chloro-N-[1-(1,3-oxazol-2-yl)-2-phenylethyl]propanamide]	84.4
O=C(CCl)c1c[nH]c(C(=O)N2CCCC2)c1 [10-A16, 2-chloro-1-[5-(pyrrolidine-1-carbonyl)-1H-pyrrol-3-yl]ethan-1-one]	0.377
Cc1cccc(Cc2cnc(NC(=O)C(C)Cl)s2)c1 (stereo not drawn) [4-D19, 2-chloro-N-{5-[(3-methylphenyl)methyl]-1,3-thiazol-2-yl}propanamide]	74.1
